In PubChem BioAssay AID1963434 (Molecular Pharmacology Branch, DTP, NCI, 2024):

Test system: 755483-174-R-J1-PDC complex spheroid growth, percent test/control
Test: Anticancer human tumor 755483-174-R-J1-PDC patient-derived rhabdomyosarcoma cell line growth inhibition [Asc]
Conditions: for IC50: curve of first compound; for viability, T/C: stronger effect = lower value; active means viability on the fitted dose curve at most 10% of control; inactive means the rest
Procedure, shortened: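 Stromal components (HUVEC and hMSC) are co-assembled with the cancer cells into multicellular spheroids. Drugs are then added singly or paired, at concentrations falling by half-log increments from a clinically achievable maximum, capped at 10 microM without known Cmax.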

[1] = second compound 0.01 µM, first compound 0.00316 µM
[2] = second compound 0.01 µM, first compound 0.01 µM
[3] = second compound 0.01 µM, first compound 0.0316 µM
[4] = second compound 0.01 µM, first compound 0.1 µM
[5] = second compound 0.01 µM, first compound 0.316 µM
[6] = second compound 0.01 µM, first compound 1 µM
[7] = second compound 0.0316 µM, first compound 0.00316 µM
[8] = second compound 0.0316 µM, first compound 0.01 µM
[9] = second compound 0.0316 µM, first compound 0.0316 µM
[10] = second compound 0.0316 µM, first compound 0.1 µM
[11] = second compound 0.0316 µM, first compound 0.316 µM
[12] = second compound 0.0316 µM, first compound 1 µM
[13] = second compound 0.1 µM, first compound 0.00316 µM
[14] = second compound 0.1 µM, first compound 0.01 µM
[15] = second compound 0.1 µM, first compound 0.0316 µM
[16] = second compound 0.1 µM, first compound 0.1 µM
[17] = second compound 0.1 µM, first compound 0.316 µM
[18] = second compound 0.1 µM, first compound 1 µM
[19] = second compound 0.316 µM, first compound 0.00316 µM
[20] = second compound 0.316 µM, first compound 0.01 µM
[21] = second compound 0.316 µM, first compound 0.0316 µM
[22] = second compound 0.316 µM, first compound 0.1 µM
[23] = second compound 0.316 µM, first compound 0.316 µM
[24] = second compound 0.316 µM, first compound 1 µM
[25] = second compound 1 µM, first compound 0.00316 µM
[26] = second compound 1 µM, first compound 0.01 µM
[27] = second compound 1 µM, first compound 0.0316 µM
[28] = second compound 1 µM, first compound 0.1 µM
[29] = second compound 1 µM, first compound 0.316 µM
[30] = second compound 1 µM, first compound 1 µM
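Further: spheroids exposed to compounds for seven days before readout.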

CCN1CCN(Cc2ccc(Nc3ncc(F)c(-c4cc(F)c5nc(C)n(C(C)C)c5c4)n3)nc2)CC1 + CNC(C)C(=O)NC1CN(S(=O)(=O)c2cccc(S(=O)(=O)N3CCC4CCC(C(=O)NC(c5ccccc5)c5ccccc5)N4C(=O)C(NC(=O)C(C)NC)C3)c2)CCC2CCC(C(=O)NC(c3ccccc3)c3ccccc3)N2C1=O
inactive: viability, T/C [1] 31.1% | viability, T/C [2] 66% | viability, T/C [3] 53.4% | viability, T/C [4] 54.2% | viability, T/C [5] 61% | viability, T/C [6] 74.4% | viability, T/C [7] 43.8% | viability, T/C [8] 33.8% | viability, T/C [9] 40.6% | viability, T/C [10] 40.5% | viability, T/C [11] 63.8% | viability, T/C [12] 69.5% | viability, T/C [13] 58.5% | viability, T/C [14] 37.7% | viability, T/C [15] 55.4% | viability, T/C [16] 59.5% | viability, T/C [17] 47.8% | viability, T/C [18] 57.5% | viability, T/C [19] 16.2% | viability, T/C [20] 37.3% | viability, T/C [21] 40.9% | viability, T/C [22] 31% | viability, T/C [23] 47.5% | viability, T/C [24] 39.9% | viability, T/C [25] 32.1% | viability, T/C [26] 18.2% | viability, T/C [27] 26.8% | viability, T/C [28] 18.6% | viability, T/C [29] 26.1% | viability, T/C [30] 32.3%
< 3.16 nM: IC50 (second compound 0.01 µM) | IC50 (second compound 0.0316 µM) | IC50 (second compound 0.316 µM) | IC50 (second compound 1 µM)
> 1000 nM: IC50 (second compound 0.1 µM)

NC(=O)C(=Cn1cnc(-c2cc(C(F)(F)F)cc(C(F)(F)F)c2)n1)c1cncnc1 + CNC(C)C(=O)NC1CN(S(=O)(=O)c2cccc(S(=O)(=O)N3CCC4CCC(C(=O)NC(c5ccccc5)c5ccccc5)N4C(=O)C(NC(=O)C(C)NC)C3)c2)CCC2CCC(C(=O)NC(c3ccccc3)c3ccccc3)N2C1=O
1.67 nM: IC50 (second compound 0.0316 µM)
2.6 nM: IC50 (second compound 0.01 µM)
< 0.949 nM: IC50 (second compound 0.1 µM) | IC50 (second compound 0.316 µM) | IC50 (second compound 1 µM)
inactive: viability, T/C (second compound 0.01 µM, first compound 0.000949 µM) 73.8% | viability, T/C (second compound 0.01 µM, first compound 0.003 µM) 46.7% | viability, T/C (second compound 0.01 µM, first compound 0.00949 µM) 15.2% | viability, T/C (second compound 0.0316 µM, first compound 0.000949 µM) 63.4% | viability, T/C (second compound 0.0316 µM, first compound 0.003 µM) 36.2% | viability, T/C (second compound 0.0316 µM, first compound 0.00949 µM) 13.5% | viability, T/C (second compound 0.0316 µM, first compound 0.03 µM) 6.2% | viability, T/C (second compound 0.0316 µM, first compound 0.0949 µM) 6.42% | viability, T/C (second compound 0.0316 µM, first compound 0.3 µM) 22% | viability, T/C (second compound 0.1 µM, first compound 0.000949 µM) 41.2% | viability, T/C (second compound 0.1 µM, first compound 0.003 µM) 35.9% | viability, T/C (second compound 0.1 µM, first compound 0.00949 µM) 7.59% | viability, T/C (second compound 0.316 µM, first compound 0.000949 µM) 26.7% | viability, T/C (second compound 0.316 µM, first compound 0.003 µM) 21% | viability, T/C (second compound 0.316 µM, first compound 0.00949 µM) 22% | viability, T/C (second compound 0.316 µM, first compound 0.03 µM) 4.35% | viability, T/C (second compound 0.316 µM, first compound 0.0949 µM) 26.3% | viability, T/C (second compound 1 µM, first compound 0.000949 µM) 28.7% | viability, T/C (second compound 1 µM, first compound 0.003 µM) 17.9% | viability, T/C (second compound 1 µM, first compound 0.00949 µM) 22.5%
active: viability, T/C (second compound 0.01 µM, first compound 0.03 µM) 5.78% | viability, T/C (second compound 0.01 µM, first compound 0.0949 µM) 4.79% | viability, T/C (second compound 0.01 µM, first compound 0.3 µM) 3.74% | viability, T/C (second compound 0.1 µM, first compound 0.03 µM) 6.43% | viability, T/C (second compound 0.1 µM, first compound 0.0949 µM) 4.59% | viability, T/C (second compound 0.1 µM, first compound 0.3 µM) 3.8% | viability, T/C (second compound 0.316 µM, first compound 0.3 µM) 2.93% | viability, T/C (second compound 1 µM, first compound 0.03 µM) 2.28% | viability, T/C (second compound 1 µM, first compound 0.0949 µM) 3.49% | viability, T/C (second compound 1 µM, first compound 0.3 µM) 1.7%

O=C(c1ccc(F)c(F)c1Nc1ccc(I)cc1F)N1CC(O)([C@@H]2CCCCN2)C1 + CNC(C)C(=O)NC1CN(S(=O)(=O)c2cccc(S(=O)(=O)N3CCC4CCC(C(=O)NC(c5ccccc5)c5ccccc5)N4C(=O)C(NC(=O)C(C)NC)C3)c2)CCC2CCC(C(=O)NC(c3ccccc3)c3ccccc3)N2C1=O
27.7 nM: IC50 (second compound 0.0316 µM)
inactive: viability, T/C [1] 49.5% | viability, T/C [2] 56.7% | viability, T/C [3] 51.5% | viability, T/C [4] 49.9% | viability, T/C [5] 29.4% | viability, T/C [6] 23.4% | viability, T/C [7] 56.5% | viability, T/C [8] 62.9% | viability, T/C [9] 36.2% | viability, T/C [10] 47.8% | viability, T/C [11] 41.7% | viability, T/C [12] 25.1% | viability, T/C [13] 38.5% | viability, T/C [14] 44.7% | viability, T/C [15] 38.6% | viability, T/C [16] 40.3% | viability, T/C [17] 23.1% | viability, T/C [19] 35% | viability, T/C [20] 25.6% | viability, T/C [21] 56% | viability, T/C [22] 31.4% | viability, T/C [23] 20.5% | viability, T/C [24] 11.3% | viability, T/C [25] 23.6% | viability, T/C [26] 24.4% | viability, T/C [27] 25.8% | viability, T/C [28] 30.4% | viability, T/C [29] 17.1% | viability, T/C [30] 4.97%
92.3 nM: IC50 (second compound 0.01 µM)
active: viability, T/C [18] 8.23%
< 3.16 nM: IC50 (second compound 0.1 µM) | IC50 (second compound 0.316 µM) | IC50 (second compound 1 µM)
